Measured values reported in patent US20240269278A1, “ANTI-CD47 ANTIBODY FOR COMBINED TREATMENT OF BLOOD TUMOR” (Nanjing Shunxin Pharmaceuticals Co., Ltd. of Chiatai …, priority 2021, published 2024).

What was measured:
Raji cells = test: Hematologic tumor mouse model of lymphoma Raji cells, survival; format: in vivo, NOD/SCID mice; details: 10 mg/kg intraperitoneal, 21 consecutive days
Description: A hematologic tumor mouse model was established using hematologic tumor Raji cells. The anti-CD47 antibodies were applied to the model for the evaluation of the pharmacodynamic activity.
A suspension of Raji cells in a PBS buffer was prepared at a concentration of 5×10^6 cells/mL, and was injected into female NOD/SCID mice via the tail vein at 0.1 mL/mouse. […] The administration was performed by intraperitoneal injection in doses of 10 mg/kg for 21 consecutive days. The survival time of the animals was observed.

HL60 cells = test: Promotion of macrophage phagocytosis of tumor cells (flow cytometry); format: cell-based; details: CFSE-labeled HL60 cells, human macrophages
Description: The ability of the anti-CD47 antibodies to promote the phagocytosis of tumor cells by macrophages having SIRPα on the cell surface was determined based on flow cytometry.
Monocytes were isolated from human peripheral blood mononuclear cells (PBMC, Sailybio, Cat. No. 190056) using a monocyte isolation kit ([…], Cat. No. 19058), plated into a 24-well plate (Greiner bio-one, Cat. No. 662-160) at […] cells per well, and induced under 100 ng/mL stimulating factor M-CSF (R&D Systems, Cat. No. 216-MC-010) for 7 days to form macrophages. 1×10^6 target cells HL60 (Shanghai Institute of Biochemistry and Cell Biology, Chinese Academy of Sciences, Cat. No. TCHu23) were suspended in […] CFSE (BD Biosciences, Cat. No. 565082) fluorescent dye (diluted with a PBS buffer to the desired concentration), incubated in a water bath at 37° C. in the dark for 15 min, and washed with a PBS buffer to prepare CFSE-labeled HL60 cells, which were then incubated with each of 10 μg/mL and 1 μg/mL anti-CD47 antibodies (see Table 3 for chimenic antibodies, and see Table 4 for humanized antibodies) in an incubator at 37° C. with 5% CO2 for 1-2 h. The HL60 cells after the incubation were washed three times with a PBS buffer and added to the macrophages. […] The rate of phagocytosis (%) by the macrophages was determined using a flow cytometer (BD Biosciences, model: C6).

[1] = system: human acute myeloblastic leukemia MOLM-16; test: Subcutaneous mouse xenograft tumor of MOLM-16; format: in vivo
Description: The experimental animals were NOD-SCID mice (5-6 weeks old, female) purchased from Beijing Huafukang Biotechnology Co., Ltd., with the production license number of SCXK (Jing) 2019-0008 and the animal certification number of 110322211100910838. The housing environment was in a SPF grade. Human acute myelocytic leukemia MOLM-16 cells were purchased from DSMZ. MOLM-16 cells were cultured in an incubator at 37° C. with 5% CO2 in air. Subculturing was performed twice a week, and when the cells were in a logarithmic growth phase, the cells were collected, counted, and inoculated. 1×10^7 MOLM-16 cells were inoculated to each mouse subcutaneously, and when tumors reached the volume of 100-150 mm^3, the mice were divided into groups and injected with drugs intravenously (IV) at the administration volume of 0.1 mL/10 g of body weight.
(§1) The experimental index was to investigate the effects of the drugs on the tumor growth, and the specific index was T/C % or the tumor growth inhibition rate (TGI %, tumor growth inhibition).
(§2) Tumor diameters were measured twice a week with a vernier caliper and tumor volume (V) was calculated according to the following formula: […]
(§3) where a and b represent length and width, respectively.
(§4) T/C (%)=(T−T0)/(C−C0)×100,
(§5) where T and C are the tumor volumes of animals at the end of the experiment in the test group and the negative control group, respectively; T0 and C0 are the tumor volumes of animals at the beginning of the experiment in the test group and the negative control group, respectively.
(§6) If the volume of tumor shrinks compared with its initial volume, i.e., T<T0 […], it is defined as partial regression (PR) of tumor; if the tumor completely disappears, it is defined as complete regression (CR) of tumor.
At the end of the experiment, the animals were sacrificed by CO2 anesthesia and dissected to give the tumors. The tumors were photographed.

[2] = system: human B-cell lymphoma Daudi; test: Subcutaneous mouse xenograft tumor of Daudi; format: in vivo, NOD-SCID mice; details: IV D0, 3, hz14A9-2.3 1.5 mg/kg, Rituximab 3 mg/kg
Description: The experimental animals were NOD-SCID mice (5-6 weeks old, male) purchased from Shanghai Lingchang Biotechnology Co., Ltd., with the production license number of SCXK (Hu) 2018-0003 and the animal certification number of 20180003014870. The housing environment was in a SPF grade. Human B-cell lymphoma Daudi cells were purchased from Cell Bank of the Chinese Academy of Sciences. Daudi cells were cultured in an incubator at 37° C. with 5% CO2 in air. Subculturing was performed twice a week, and when the cells were in a logarithmic growth phase, the cells were collected, counted, and inoculated. 1×10^7 Daudi cells were inoculated to each mouse subcutaneously, and when tumors reached the volume of about 100 mm^3, the mice were divided into groups and injected with drugs intravenously (IV) once every 3 days (Q3D) for a total of 2 times at the injection volume of 0.1 mL/10 g of body weight.
as §1, §2, §3, §4, §5, §6
At the end of the experiment (D24), the animals were sacrificed by CO2 anesthesia and dissected to give the tumors. The tumors were photographed.

[3] = Azacitadine 2.5 mg/kg IV QD × 5

Compound: Hu5F9: the positive antibody Hu5F9, comparison anti-CD47 antibody [reference compound]
- day on which all the animals in the group died (Raji cells): 30 days
- median survival time (Raji cells): 18.5 days
- rate of phagocytosis (HL60 cells; 1 μg/mL antibody): 67.5%
- rate of phagocytosis (HL60 cells; 10 μg/mL antibody): 72.35%

Compound: Nc1ncn([C@@H]2O[C@H](CO)[C@@H](O)[C@H]2O)c(=O)n1 [Azacitadine, 4-amino-1-β-D-ribofuranosyl-1,3,5-triazin-2(1H)-one]
- T/C(%) D12 ([1]; Azacitadine 1 mg/kg IV QD × 5): 50%
- Tumor growth inhibition (%) D12 ([1]; Azacitadine 1 mg/kg IV QD × 5): 50%
- T/C(%) D12 [1, 3]: 18%
- Tumor growth inhibition (%) D12 [1, 3]: 82%
- mean tumor volume D17 ([1]; azacitadine 1 mg/kg IV QD×5 monotherapy): 3729.5 ± 436.4 mm^3
- mean tumor volume D17 ([1]; azacitadine 2.5 mg/kg IV QD×5 monotherapy): 1920.7 ± 375.6 mm^3

Compound: Rituximab: anti-CD20 monoclonal antibody [reference compound]
- T/C(%) D24 [2]: 64%
- Tumor growth inhibition (%) D24 [2]: 36%
- Partial regression (number of tumors) ([2]; hIgG4 4.5 mg/kg, 6 mice per group (hIgG4 10)): 0
